Laboratory results as given in US12714708B2, “Compounds with anti-tumor activity against cancer cells bearing HER2 exon 19 mutations” (Board of Regents, The University of Texas System, priority 2019, dated 2026).

Tests used:
[1] = test system: Ba/F3 HER2 L755P mutant cells; experiment: Cell Titer Glo cell viability, Ba/F3 cells expressing HER2 L755P; assay type: cell-based; conditions: for inhibition of cell viability: Ba/F3 cells expressing HER2 L755P protein; for IC50: Mus musculus, BaF3, Ba/F3 HER2 L755P mutant cells
Procedure: Ba/F3 cells expressing exon 19 point mutation L755P were generated.
Cell line generation and IL-3 deprivation: Ba/F3 cell line, was cultured in complete RPMI-1640 (R8758; Sigma Life Science) media supplemented with L-glutamine, 10% heat inactivated FBS (Gibco), 1% penicillin/streptomycin (Sigma Life Science), and 10 ng/ml mouse IL-3 (R&D systems) under sterile conditions. Stable cell lines were generated by retroviral transduction of Ba/F3 cell line for 12 hours. Retroviruses were generated by transfecting pBabe-Puro based vectors into the Phoenix 293T ampho packing cell line (Orbigen) using Lipofectamine 2000 (Invitrogen). 72 hours after transduction, 2 μg/ml puromycin (Invitrogen) was added to the media. After 5 days of selection, cells were stained with FITC-HER2 (Biolegend) and sorted via FACS. Cell lines were then grown in the absence of IL-3 for 15 days and cell viability was determined every 3 days using the Cell Titer Glo assay (Progema). Resulting stable cell lines were maintained in complete RPMI-1640 media described above without IL-3. […] To generate HER2 […] cell lines, cells were transduced with c.2264T>C (created from Bioinnovatise from pBabe-puro HER WT from Addgene (#40978)).
(§1) Cell viability assay and IC50 estimation: Cell viability was determined using the Cell Titer Glo assay (Promega) as previously described (Robichaux et al., 2018). Briefly, 2000-3000 cells per well were plated in 384-well plates (Greiner Bio-One) in technical triplicate. Cells were treated with seven different concentrations of tyrosine kinase inhibitors or vehicle alone at a final volume of 40 μL per well. After 3 days, 11 μL of Cell Titer Glo was added to each well. Plates were shaken for 15 minutes, and bioluminescence was determined using a FLUOstar OPTIMA multi-mode micro-plate reader (BMG LABTECH). Bioluminescence values were normalized to DMSO treated cells, and normalized values were plotted in GraphPad Prism using non-linear regression fit to normalized data with a variable slope. IC50 values were calculated by GraphPad Prism at 50% inhibition.

[2] = test system: CW-2 cells (HER2 L755S) xenografts; experiment: CW-2 cell line xenograft tumor growth study; assay type: in vivo, mice; conditions: for Tukey's multiple comparisons test Summary: Poziotinib 5 mg/kg
Procedure: In vivo xenograft studies: CW-2 cell line xenografts were created by injecting 1×10^6 cells in 50% matrigel into 6-week-old female nu/nu nude mice. When tumors reached 350 mm^3 mice were randomized into 4 groups: 20 mg/kg afatinib, 5 mg/kg poziotinib, 30 mg/kg neratinib, or vehicle control (0.5% Methylcellulose, 2% Tween-80 in dH2O). Tumor volumes were measured three times per week. Mice received drug Monday-Friday (5 days per week), but began dosing on Wednesday allowing for a 2-day holiday after the first 3 days of dosing.

[3] = test system: HER2 exon 19 mutant Ba/F3 cell lines; experiment: Cell Titer Glo cell viability, Ba/F3 cell lines expressing HER2 exon 19 mutations; assay type: cell-based
Procedure: In addition, several other HER2 exon 19 mutations including D769Y, D769N, D769H, L755S, and R678Q were tested for their sensitivity to different TKIs including poziotinib.
Cell viability of stable Ba/F3 cell lines expressing HER2 exon 19 mutations grown in IL-3 free conditions was measured for 14 days. Cell viability was determined every 3 days by the Cell Titer Glo assay (FIG. 4). […] Average IC50 values of Ba/F3 cells expressing L755S or L755P with indicated inhibitors were measured (FIG. 5C).
Cell line generation and IL-3 deprivation: Ba/F3 cell line, was cultured in complete RPMI-1640 (R8758; Sigma Life Science) media supplemented with L-glutamine, 10% heat inactivated FBS (Gibco), 1% penicillin/streptomycin (Sigma Life Science), and 10 ng/ml mouse IL-3 (R&D systems) under sterile conditions. Stable cell lines were generated by retroviral transduction of Ba/F3 cell line for 12 hours. Retroviruses were generated by transfecting pBabe-Puro based vectors into the Phoenix 293T ampho packing cell line (Orbigen) using Lipofectamine 2000 (Invitrogen). 72 hours after transduction, 2 μg/ml puromycin (Invitrogen) was added to the media. After 5 days of selection, cells were stained with FITC-HER2 (Biolegend) and sorted via FACS. Cell lines were then grown in the absence of IL-3 for 15 days and cell viability was determined every 3 days using the Cell Titer Glo assay (Progema). Resulting stable cell lines were maintained in complete RPMI-1640 media described above without IL-3. Cell line identity was confirmed by DNA fingerprinting via short tandem repeats using the PowerPlex 1.2 kit (Promega). Fingerprinting results were compared with reference fingerprints maintained by the primary source of the cell line. All cell lines were free of mycoplasma. […]
Cell viability assay and IC50 estimation: Cell viability was determined using the Cell Titer Glo assay (Promega) as previously described (Robichaux et al., 2018). […] Plates were shaken for 15 minutes, and bioluminescence was determined using a FLUOstar OPTIMA multi-mode micro-plate reader (BMG LABTECH). […]

CW-2 colorectal cells = experiment: Cell viability of CW-2 cells treated with inhibitors; assay type: cell-based, human; conditions: various concentrations, 72 hours (FIG. 6A)
Procedure: A mouse study was performed with mice inoculated with CW-2 cells treated with poziotinib, afatinib, or neratinib. […] Thus, poziotinib, as well as structurally similar inhibitors, are potent inhibitors of HER2 exon 19 mutations and can be used as therapeutics to overcome de novo drug resistance.
as §1
Human cell lines: MCF10A cells were purchased from ATCC and were cultured in DMEM/F12 media supplemented with 1% penicillin/streptomycin, 5% horse serum (sigma), 20 ng/ml EGF, […] hydrocortisone, and 10 ug/ml insulin. […]

[4] = Day 10, vs. Vehicle, Afatinib 20 mg/kg, Neratinib 30 mg/kg, two-way ANOVA of FIG. 6B
[5] = Day 13, vs. Vehicle, Afatinib 20 mg/kg, Neratinib 30 mg/kg, two-way ANOVA of FIG. 6B

Cc1cc(C(=O)Nc2nc3cccc(Cl)c3n2[C@@H]2CCCCN(C(=O)/C=C/CN(C)C)C2)ccn1 [EGF-816]
inhibition of cell viability [1]: failed to inhibit cell viability

CN(C)C/C=C/C(=O)Nc1cc2c(Nc3ccc(F)c(Cl)c3)ncnc2cc1O[C@H]1CCOC1 [afatinib]
IC50 [1]: 13 nM

CS(=O)(=O)CCNCc1ccc(-c2ccc3ncnc(Nc4ccc(OCc5cccc(F)c5)c(Cl)c4)c3c2)o1 [lapatinib]
inhibition of cell viability [1]: failed to inhibit cell viability

CCOc1cc2ncc(C#N)c(Nc3ccc(OCc4ccccn4)c(Cl)c3)c2cc1NC(=O)/C=C/CN(C)C [neratinib]
Tukey's multiple comparisons test Summary [2, 4]: ns | Tukey's multiple comparisons test Summary [2, 5]: ns | Tukey's multiple comparisons test Summary ([2]; Day 15, vs. Vehicle, Afatinib 20 mg/kg, Neratinib 30 mg/kg, two-way ANOVA of FIG. 6B): ns | Tukey's multiple comparisons test Summary ([2]; Day 17, vs. Vehicle, Afatinib 20 mg/kg, Neratinib 30 mg/kg, two-way ANOVA of FIG. 6B): ns

C=CC(=O)N1CCC(Oc2cc3c(Nc4ccc(Cl)c(Cl)c4F)ncnc3cc2OC)CC1 [poziotinib, 1-[4-[4-(3,4-dichloro-2-fluoroanilino)-7-methoxyquinazolin-6-yl]oxypiperidin-1-yl]prop-2-en-1-one]
IC50 values as compared to the other inhibitors tested ([3]; Ba/F3 cells expressing HER2 exon 19 mutations incl. L755S or L755P, 72 hours of drug treatment): lowest IC50 values | concentrations inhibiting HER2 exon 19 mutants ([3]; HER2 exon 19 mutants): low nanomolar concentrations | inhibition of growth of mutant cells ([3]; HER2 exon 19 mutations D769Y, D769N, D769H, L755S, R678Q (FIG. 3)): inhibited the growth of these mutant cells | decrease in cell viability (CW-2 colorectal cells): highest decrease in cell viability | inhibition of cell viability [1]: inhibition of cell viability | IC50 [1]: 3 nM | Tukey's multiple comparisons test Summary ([2]; Day 10, vs. Afatinib (20 mg/kg)): ns | Tukey's multiple comparisons test Summary [2, 4]: ns | Tukey's multiple comparisons test Summary ([2]; Day 13, vs. Afatinib (20 mg/kg)): ns | Tukey's multiple comparisons test Summary ([2]; Day 13, vs. Neratinib (30 mg/kg), Afatinib 20 mg/kg): ns | Tukey's multiple comparisons test Summary [2, 5]: ns | Tukey's multiple comparisons test Summary ([2]; Day 15, vs. Afatinib (20 mg/kg)): ns | Tukey's multiple comparisons test Summary ([2]; Day 17, vs. Afatinib (20 mg/kg)): ns | Tumor growth ([2]; mice inoculated with CW-2 cells, 5 mg/kg (FIG. 6C)): significantly decreased
